Structures can show the parent of a compound that is named as a salt. Where two headings read alike, the source gives them in different places.
Assays:
[1] = tested on: T. cruzi, strain Tulahuen C4, intracellular amastigotes; assay: microbe, parasite or virus in culture; conditions: for IC50: Trypanosoma cruzi, TULAHUEN
Protocol: (§1) Drug stock solutions (10mg/ml) were in DMSO (100%). […] Selectivity index (SI) was calculated as IC50 L6 cells/IC50 parasite.

[2] = in vitro; conditions: rat
Protocol: as §1

[3] = tested on: T. b. rhodesiense strain STIB 900, trypomastigotes; assay: In vitro activity against T. b. rhodesiense, serial drug dilution assay; conditions: for IC50: Trypanosoma brucei
Protocol: as §1

[4] = Cytotoxicity on macrophages infected with L. donovani; assay type: cell-based, mouse; conditions: mouse
[5] = tested on: axenic amastigotes of L. donovani, strain MHOM-ET-67/L82; assay: In vitro activity against L. donovani axenic amastigotes, serial drug dilution assay; assay type: cell-based, Leishmania donovani; conditions: Leishmania donovani
Protocol: as §1

[6] = tested on: intracellular amastigotes of L. donovani strain MHOM-ET-67/L82; assay: Activity against Leishmania donovani intracellular amastigotes in mouse peritoneal macrophages; conditions: Leishmania donovani, Peritoneal macrophage, in Mus musculus
Protocol: After 24 h 1.2 x 10^5 amastigote L. donovani in 100 μl were added. The amastigotes were taken from an axenic culture grown at pH 5.4. Four hours later, the medium containing free amastigote forms was removed and replaced by fresh medium. The next day the medium was replaced by medium with or without a serial drug dilution of seven 3-fold dilution steps covering a range from 30 to 0.04 μg/ml. Parasite growth in the presence of the drug was compared to control wells. After 96 h of incubation, the medium was removed and the slides fixed with methanol for 10 min followed by staining with a 10% Giemsa solution. Infected and non-infected macrophages were counted for the control cultures and those exposed to the serial drug dilutions. The infection rates were determined. The results were expressed as a percentage reduction in parasite burden compared to control wells, and the IC50 was calculated by linear regression analysis. The collection of mouse peritoneal macrophages was done at the Swiss Tropical and Public Health Institute (Basel) according to the rules and regulations for the protection of animal rights ("Tierschutzverordnung") of the Swiss "Bundesamt für Veterinärwesen".

[7] = tested on: P. falciparum strain K1; assay: In vitro activity against P. falciparum, serial drug dilution assay; conditions: for IC50: Plasmodium falciparum; for Activity against P. falciparum (in words): in vitro; for selectivity ratio: rat
Protocol: as §1

[8] = macrophages infected with L. donovani, read-out: IC50 Cytotox. mac.inf.
[9] = axenic amastigotes, strain MHOM-ET-67/L82, means of two independent assays, read-out: IC50 L. don. axen.
[10] = 96 h, read-out: IC50 L. don. intracell
[11] = infected macrophages, read-out: Cytotox. mac.inf. IC50
[12] = L. donovani axenic amastigotes, read-out: L. don. axen. IC50
[13] = read-out: L. don. intracell IC50
[14] = L6 cells, IC50 Cytotox. L6, L6 cells, means of two independent assays
[15] = mouse peritoneal macrophages infected with L. donovani, macrophages infected with L. donovani, read-out: IC50 Cytotox. mac.inf.
[16] = Selectivity index: IC50 Cytotoxicity L6/ IC50 P. falciparum

Structure (SMILES) | IC50 ([1]; read-out: IC50 T. cruzi) | IC50 ([2]; IC50 Cytotox. L6) | IC50 ([3]; read-out: IC50 T. b. rhod.) | IC50 at 96 h [4, 8] | IC50 [5, 9] | IC50 [6, 10] | IC50 ([7]; K1, read-out: IC50 P. falc. K1) | other results
Nc1ccc(S(=O)(=O)c2ccc(N)cc2)cc1 [Dapsone] | 220 µM | 204 µM | 353 µM | > 121 µM | > 403 µM | > 121 µM | 168 µM | 
OCCN(CCO)c1nc(N2CCCCC2)c2nc(N(CCO)CCO)nc(N3CCCCC3)c2n1 [Dipyridamole] | 29.3 µM | 38.6 µM | 7.45 µM | > 59.5 µM | 62 µM | > 59.5 µM | 1.3 µM | Activity against P. falciparum (in words) [7]: selective activities
C[C@H]1c2cccc(O)c2C(=O)C2=C(O)[C@]3(O)C(=O)C(C(N)=O)=C(O)[C@@H](N(C)C)[C@@H]3[C@@H](O)[C@@H]21 [Doxycycline] |  |  |  |  |  |  |  | IC50 ([1]; read-out: T. cruzi IC50): 39.1 µM; IC50 ([2]; Cytotox. L6 IC50): 14.5 µM; IC50 ([3]; read-out: T. b. rhod. IC50): 63.7 µM; MCC at 96 h [4, 11]: 67.5 µM; IC50 [5, 12]: 24.1 µM; IC50 [6, 13]: > 22.5 µM; IC50 ([7]; K1, read-out: P. falc. IC50): 4.48 µM
CCn1cc(C(=O)O)c(=O)c2cc(F)c(N3CCNCC3)nc21 [Enoxacin] |  |  |  |  |  |  |  | IC50 ([1]; read-out: T. cruzi IC50): 163 µM; IC50 ([2]; Cytotox. L6 IC50): 25 µM; IC50 ([3]; read-out: T. b. rhod. IC50): 113 µM; IC50 at 96 h [4, 11]: > 93.7 µM; IC50 [5, 12]: > 312 µM; IC50 [6, 13]: > 93.7 µM; IC50 ([7]; K1, read-out: P. falc. IC50): 76.8 µM
CC[C@H]1OC(=O)[C@H](C)[C@@H](O[C@H]2C[C@@](C)(OC)[C@@H](O)[C@H](C)O2)[C@H](C)[C@@H](O[C@@H]2O[C@H](C)C[C@H](N(C)C)[C@H]2O)[C@](C)(O)C[C@@H](C)C(=O)[C@H](C)[C@@H](O)[C@]1(C)O [Erythromycine (Hydrate), Erythromycine] | 114 µM | 92.2 µM | 72.1 µM | > 39.9 µM | > 133 µM | > 39.9 µM | 9.91 µM | 
CC(=O)OCC(CCn1cnc2cnc(N)nc21)COC(C)=O [Famciclovir] | 207 µM | 180 µM | 225 µM | > 93.4 µM | > 311 µM | > 93.4 µM | > 156 µM | 
CC(=O)[C@H]1CC[C@H]2[C@@H]3CC[C@H]4C[C@](C)(O)CC[C@]4(C)[C@H]3CC[C@]12C [Ganaxolone] |  |  |  |  |  |  |  | IC50 ([1]; read-out: T. cruzi IC50): 65 µM; IC50 [2]: 23.5 µM; IC50 ([3]; read-out: T. b. rhod. IC50): 5.47 µM; IC50 at 96 h [4, 11]: > 90.2 µM; IC50 [5, 12]: 42.5 µM; IC50 [6, 13]: > 90.2 µM; IC50 ([7]; K1, read-out: P. falc. IC50): > 15 µM
Nc1nc(O)c2ncn(COC(CO)CO)c2n1 [Ganciclovir] | 240 µM | 179 µM | 252 µM | > 118 µM | > 392 µM | > 118 µM | > 196 µM | 
COc1ccc(Cl)cc1C(=O)NCCc1ccc(S(=O)(=O)NC(=O)NC2CCCCC2)cc1 [Glybenclamide] |  |  |  |  |  |  |  | IC50 ([1]; read-out: T. cruzi IC50): 93.9 µM; IC50 [2]: 116 µM; IC50 ([3]; read-out: T. b. rhod. IC50): 87.7 µM; IC50 at 96 h [4, 11]: > 60.7 µM; IC50 [5, 12]: 9.8 µM; IC50 [6, 13]: > 60.7 µM; IC50 ([7]; K1, read-out: P. falc. IC50): 38.3 µM
COC1=CC(=O)C[C@@H](C)[C@]12Oc1c(Cl)c(OC)cc(OC)c1C2=O [Griseofulvin] |  |  |  |  |  |  |  | IC50 ([1]; read-out: T. cruzi IC50): 87.3 µM; IC50 ([2]; Cytotox. L6 IC50): 20.5 µM; IC50 ([3]; read-out: T. b. rhod. IC50): 40 µM; IC50 at 96 h [4, 11]: > 85 µM; IC50 [5, 12]: 87 µM; IC50 [6, 13]: > 85 µM; IC50 ([7]; K1, read-out: P. falc. IC50): 75.1 µM
CC(C)(C)NC(=O)[C@@H]1CN(Cc2cccnc2)CCN1C[C@@H](O)C[C@@H](Cc1ccccc1)C(=O)N[C@H]1c2ccccc2C[C@H]1O [Indinavir (Sulfate), Indinavir] | 93.5 µM |  | 48.2 µM | > 42.3 µM | > 141 µM | > 42.3 µM | 6.03 µM | IC50 [2]: > 141 µM
NNC(=O)c1ccncc1 [Isoniazide] | 383 µM | 602 µM | > 729 µM | > 219 µM | > 729 µM | > 219 µM | 246 µM | 
CN1CCC(=C2c3ccccc3CC(=O)c3sccc32)CC1 [Ketotifen] | 141 µM |  | 15.2 µM |  | > 291 µM | > 97 µM | 0.75 µM | IC50 [2, 14]: 147 µM; IC50 at 96 h [4, 15]: > 97 µM; Activity against P. falciparum (in words) [7]: selective activities; selectivity ratio [7, 16]: 196
Cc1oncc1C(=O)Nc1ccc(C(F)(F)F)cc1 [Leflunomide] | 152 µM | 124 µM | 213 µM | > 111 µM | 21.8 µM | > 111 µM | > 18.5 µM | 
CCC[C@@H]1C[C@@H](C(=O)N[C@@H]([C@H]2O[C@H](SC)[C@H](O)[C@@H](O)[C@H]2O)[C@@H](C)O)N(C)C1 [Lincomycin] | > 221 µM | > 221 µM | > 221 µM | > 73.8 µM | > 221 µM | > 73.8 µM | 7.08 µM | 
Cc1cccc(C)c1OCC(=O)N[C@@H](Cc1ccccc1)[C@@H](O)C[C@H](Cc1ccccc1)NC(=O)[C@H](C(C)C)N1CCCNC1=O [Lopinavir] | 15.4 µM | 18.9 µM | 10.8 µM | > 47.7 µM | 11.8 µM | > 47.7 µM | 1.92 µM | 
CCN(CCCCOC(=O)c1ccc(OC)c(OC)c1)C(C)Cc1ccc(OC)cc1 (centres unmarked) [Mebeverine] | 3.89 µM | 70.8 µM | 54.2 µM | > 69.8 µM | > 210 µM | 54.9 µM | 1.74 µM | selectivity ratio ([1]; rat, Selectivity index: IC50 Cytotoxicity L6/ IC50 T. cruzi): 18
OC(c1cc(C(F)(F)F)nc2c(C(F)(F)F)cccc12)C1CCCCN1 (centres unmarked) [Mefloquine (Hydrochloride), Mefloquine] |  | 3.25 µM |  |  |  |  | 0.002 µM | IC50 ([1]; read-out: T. cruzi IC50): 4.48 µM; IC50 ([3]; read-out: T. b. rhod. IC50): 0.53 µM; MCC at 96 h [4, 11]: 7.23 µM; IC50 [5, 12]: 38.6 µM; IC50 [6, 13]: 2.41 µM; IC50 ([7]; K1, read-out: P. falc. IC50): 0.0024 µM; selectivity ratio [7, 16]: 1350
Cc1ncc([N+](=O)[O-])n1CCO [Metronidazole] | 279 µM | 339 µM | 338 µM | > 175 µM | 491 µM | > 175 µM | 277 µM | Activity against T. b. rhodesiense (in words) ([3]; in vitro): inactive
CN(C)c1ccc(O)c2c1C[C@H]1C[C@H]3[C@H](N(C)C)C(O)=C(C(N)=O)C(=O)[C@@]3(O)C(O)=C1C2=O [Minocycline] |  |  |  |  |  |  |  | IC50 ([1]; read-out: T. cruzi IC50): 22.3 µM; IC50 ([2]; Cytotox. L6 IC50): 9.42 µM; IC50 ([3]; read-out: T. b. rhod. IC50): 36.6 µM; IC50 at 96 h [4, 11]: > 21.9 µM; IC50 [5, 12]: 45.7 µM; IC50 [6, 13]: > 21.9 µM; IC50 ([7]; K1, read-out: P. falc. IC50): 3.58 µM
Cc1c(O)cccc1C(=O)N[C@@H](CSc1ccccc1)[C@H](O)CN1C[C@H]2CCCC[C@H]2C[C@H]1C(=O)NC(C)(C)C [Nelfinavir] | 10.2 µM | 12.1 µM | 20.6 µM | > 52.8 µM | 9.62 µM | 20.2 µM | 10.4 µM | 
NC(=O)c1cccnc1 [Nicotinamide] | > 737 µM | > 737 µM | > 737 µM | > 246 µM | > 737 µM | > 246 µM | > 40.9 µM | 
CNCCC=C1c2ccccc2CCc2ccccc21 [Nortryptyline] | 22.9 µM |  | 1.17 µM | 38 µM | > 342 µM | > 11.4 µM | 0.58 µM | IC50 [2]: 27.9 µM; Selectivity index: IC50 Cytotoxicity L6/ IC50 T. b. rhodesiense ([3]; rat): 24; selectivity ratio ([3]; rat, Selectivity index: IC50 Cytotoxicity L6/ IC50 T. b. rhodesiense): > 20; selectivity ratio [7]: 48
COc1ccc2[nH]c([S+]([O-])Cc3ncc(C)c(OC)c3C)nc2c1 (centres unmarked) [Omeprazole] | 68.3 µM | 126 µM | 51.8 µM | > 86.9 µM | 90.9 µM | > 86.9 µM | 13.2 µM | 
Fc1ccc([C@@H]2CCNC[C@H]2COc2ccc3c(c2)OCO3)cc1 [Paroxetine] | 14.4 µM | 13.8 µM | 1.13 µM |  | > 273 µM | > 9.11 µM | 9.23 µM | selectivity ratio ([3]; rat): 12; MCC at 96 h [4, 8]: 30.4 µM
Nc1nc2c(ncn2CCC(CO)CO)c(=O)[nH]1 [Penciclovir] | 254 µM | 220 µM | > 395 µM | > 118 µM | > 395 µM | > 118 µM | 169 µM | 
Cc1nc2ccccn2c(=O)c1CCN1CCC(C(=O)c2ccc(F)cc2)CC1 [Pirenperone] | 128 µM |  | 30 µM |  | 162 µM | > 76.2 µM | 4.35 µM | IC50 [2, 14]: 232 µM; IC50 at 96 h [4, 15]: > 76.2 µM
